According to article PMC6010069, “The RFK catalytic cycle of the pathogen Streptococcus pneumoniae shows species-specific features in prokaryotic FMN synthesis” (Journal of Enzyme Inhibition and Medicinal Chemistry, 2018):
Where two headings read alike, the source gives them in different places.

Legend:
SpnFADS [1] = molecular target: T1, SpnFADS (Streptococcus pneumoniae, UniProt A0A0H2UPY5); assay: biochemical; parameters: Isothermal titration calorimetry, ligand titrated into free or ligand-pre-bound SpnFADS, 20 °C, PIPES pH 7.0
T1 construct: gene SP_1110; full-length bifunctional enzyme from pET-15b in E. coli BL21 Star (DE3), His6-tag removed; riboflavin kinase activity of the C-terminal module; functional form monomer
T1 sequence (A0A0H2UPY5 1-305): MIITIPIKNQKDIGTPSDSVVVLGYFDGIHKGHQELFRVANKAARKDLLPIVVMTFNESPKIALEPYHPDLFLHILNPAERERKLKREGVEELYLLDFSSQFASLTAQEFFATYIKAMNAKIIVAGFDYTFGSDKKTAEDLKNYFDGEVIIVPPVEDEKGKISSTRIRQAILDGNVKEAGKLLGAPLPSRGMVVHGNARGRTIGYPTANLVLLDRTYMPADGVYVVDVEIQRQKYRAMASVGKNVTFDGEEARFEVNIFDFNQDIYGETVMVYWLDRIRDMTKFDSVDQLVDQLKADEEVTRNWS
Protocol: We performed isothermal titration calorimetry (ITC) assays to elucidate both the ligand binding order and the thermodynamic inhibition produced by the binding of the FLV and ANP ligands. Titrations were performed on an AutoITC200 (MicroCal, Malvern, UK) thermostated at 20 °C, as previously described. Approximately 25 µM SpnFADS contained in a 200 µL-cell was titrated with solutions of 180 µM RF, 250 µM FMN, or 350 µM ATP or ADP. Additionally, titrations with ANP ligands into mixtures that contain the protein pre-bound to FLV ligands were performed, as well as titrations with FLV ligands into pre-bound SpnFADS:ANP complexes. The titrations were conducted through 19 stepwise injections of 2 µL of the titrating ligand to the calorimetric cell, as previously described[21]^,[26]. Both the ligands and the protein were dissolved in 20 mM PIPES, pH 7.0, either in presence of 0.8 mM MgCl2 or in absence of this cation, and degassed before the titration. The enthalpy change (ΔH), the association constant (Ka), and the binding stoichiometry (N) were obtained through non-linear least squares regression of the data using a homemade fitting routine corresponding to a model for one or two independent binding sites, implemented in Origin 7.0 (OriginLab, Northampton, MA, USA), as previously described[21]^,[26]. The Gibbs free energy (ΔG), the entropic contribution (−TΔS), and the dissociation constant (Kd) were obtained using well-known thermodynamic equations. Cooperativity constants (α) between ANP and FLV ligands were obtained as previously described[23]^,[27]^,[28]. Particular titrations with ANP ligands into mixtures of the protein and 100 µM FLV were fit to a homemade fitting routine corresponding to a model that considers the influence of the FLV ligand in the protein binding affinity for the ANP ligand[27]^,[28]. Experiments were performed in triplicate. The errors considered in the measured parameters (±15% in Kd and Ka values, ±0.3 kcal mol^−1 in ΔG, ΔH, and −TΔS and ±20% in α) were assumed to be larger than the standard deviation between replicates and the numerical error after fitting analysis.

SpnFADS [2] = molecular target: T1, SpnFADS; assay: stopped-flow flavin fluorescence, Kd from koff and kon; format: binding
Source text: stopped-flow flavin fluorescence, Kd from koff and kon on SpnFADS

SpnFADS [3] = molecular target: T1, SpnFADS; assay: RFK activity, HPLC of flavins, global Lineweaver-Burk fit; format: biochemical
Source text: (§1) RFK activity, HPLC of flavins, global Lineweaver-Burk fit on SpnFADS

[4] = substrate: Nc1ncnc2c1ncn2[C@@H]1O[C@H](COP(=O)(O)OP(=O)(O)OP(=O)(O)O)[C@@H](O)[C@H]1O; assay: as above; format: biochemical, Streptococcus pneumoniae; conditions: co-substrate RF, 20 mM PIPES pH 7.0, 0.8 mM MgCl2, 25 °C
Source text: as §1

[5] = substrate: Cc1cc2nc3c(=O)[nH]c(=O)nc-3n(C[C@H](O)[C@H](O)[C@H](O)CO)c2cc1C; assay: as above; format: biochemical, Streptococcus pneumoniae; conditions: co-substrate ATP, 20 mM PIPES pH 7.0, 0.8 mM MgCl2, 25 °C
Source text: as §1

[6] = enzyme pre-bound to ADP, 0.8 mM MgCl2
[7] = enzyme pre-bound to ADP, no MgCl2, read-out: Kd (μM), 0.0 mM MgCl2

Molecule: Cc1cc2nc3c(=O)[nH]c(=O)nc-3n(C[C@H](O)[C@H](O)[C@H](O)CO)c2cc1C [RF, riboflavin]
- Kd (SpnFADS [1]; [6]): 1.6 µM
- Kd (SpnFADS [1]; [7]): 0.3 µM
- Kd (SpnFADS [1]; enzyme pre-bound to ATP, no MgCl2, read-out: Kd (μM), 0.0 mM MgCl2): 2.5 µM
- Kd (SpnFADS [2]): 570 ± 140 nM

Molecule: Cc1cc2nc3c(=O)[nH]c(=O)nc-3n(C[C@H](O)[C@H](O)[C@H](O)COP(=O)(O)O)c2cc1C [FMN, flavin mononucleotide]
- Kd (SpnFADS [1]; [6]): 2.3 µM
- Kd (SpnFADS [1]; [7]): 7.9 µM
- Kd (SpnFADS [1]; enzyme pre-bound to ATP, 0.8 mM MgCl2): 1.6 µM
- Kd (SpnFADS [2]): 760 ± 240 nM
- Ki (SpnFADS [3]; read-out: Ki^FMN): 1300 ± 400 nM

Molecule: Nc1ncnc2c1ncn2[C@@H]1O[C@H](COP(=O)(O)OP(=O)(O)O)[C@@H](O)[C@H]1O [ADP, adenosine 5′-diphosphate]
- Ki (SpnFADS [3]; read-out: Ki^ADP): 130000 ± 16000 nM

B1: SpnFADS (Streptococcus pneumoniae TIGR4) (protein)
chain: MIITIPIKNQKDIGTPSDSVVVLGYFDGIHKGHQELFRVANKAARKDLLPIVVMTFNESPKIALEPYHPDLFLHILNPAERERKLKREGVEELYLLDFSSQFASLTAQEFFATYIKAMNAKIIVAGFDYTFGSDKKTAEDLKNYFDGEVIIVPPVEDEKGKISSTRIRQAILDGNVKEAGKLLGAPLPSRGMVVHGNARGRTIGYPTANLVLLDRTYMPADGVYVVDVEIQRQKYRAMASVGKNVTFDGEEARFEVNIFDFNQDIYGETVMVYWLDRIRDMTKFDSVDQLVDQLKADEEVTRNWS
notes: full-length bifunctional enzyme from pET-15b in E. coli BL21 Star (DE3), His6-tag removed; riboflavin kinase activity of the C-terminal module; functional form monomer
- Km [4]: 75 ± 7 µM
- kcat [4]: 0.917 ± 0.033 s⁻¹
- Km [5]: 1.2 ± 0.3 µM
- kcat [5]: 0.917 ± 0.033 s⁻¹
